The source made the active and inactive calls. The rule behind the calls is not given here.
Tests used:
[1] = test system: HCT-116; assay: Antiproliferative activity against human HCT-116 cells incubated for 4 days by CCK8 assay; type: functional, cell-based; details: HCT-116, 96 h
[2] = test system: HCT-116; assay: Induction of RBM39 degradation in human HCT-116 cells assessed as fold change at 0.1 uM incubated for 24 hrs by Western blot analysis relative to control; type: cell-based
[3] = test system: HCT-116; assay: Induction of RBM39 degradation in human HCT-116 cells at 0.1 to 1 uM incubated for 24 hrs by Western blot analysis; type: cell-based; details: dose 0.1-1 µM
[4] = test system: HCT-116; assay: Induction of RBM39 degradation in human HCT-116 cells assessed as fold change at 1 uM incubated for 24 hrs by Western blot analysis relative to control; type: cell-based
[5] = Inhibition of DCAF15 (2 to 600 residues)/full-length DDB1 (1 to 1140 residues)(unknown origin) incubated for 1 hr by fluorescence polarization assay; parameters: species or system Homo sapiens
[6] = Inhibition of N-terminal His-tagged RBM39 (146 to 326 residues)/DCAF15 (2 to 600 residues)/full-length DDB1 (1 to 1140 residues)(unknown origin) incubated for 1 hr by fluorescence polarization assay; parameters: species or system Homo sapiens
[7] = Competitive inhibition of N-terminal His-tagged RBM39 (146 to 326 residues)/DCAF15 (2 to 600 residues)/full-length DDB1 (1 to 1140 residues)(unknown origin) incubated for 1 hr in presence of (R)-N-(3-(N-(3-Cyano-4-methyl-1H-indol-7-yl)sulfamoyl)phenyl)-2-(2-(((6-(3-(3',6'-dihydroxy-3-oxo-3H-spiro[isobenzofuran-1,9'-xanthen]-5-yl)thioureido)hexyl)amino)methyl)pyrrolidin-1-yl)-2-oxoacetamide by fluorescence polarization assay; parameters: species or system Homo sapiens

Compound | IC50 [1] | fold change (FC) [2] | Activity [3] | fold change (FC) [4] | also measured
COC[C@H]1CCCN1C(=O)C(=O)Nc1cccc(S(=O)(=O)Nc2ccc(C)c3c(C#N)c[nH]c23)c1 | 0.729 µM | – | – | – | –
Cc1ccc(NS(=O)(=O)c2cccc(NC(=O)C(=O)NCCCCCCN(C)C)c2)c2[nH]cc(C#N)c12 | 0.776 µM | – | – | – | –
Cc1ccc(NS(=O)(=O)c2cccc(NC(=O)C(=O)N3CCCC[C@@H]3CO)c2)c2[nH]cc(C#N)c12 | 0.058 µM | 0.66 | Active | 0.17 | –
Cc1ccc(NS(=O)(=O)c2cccc(NC(=O)C(=O)N3CCC[C@H]3CN)c2)c2[nH]cc(C#N)c12 | 0.0905 µM | 0.55 | Active | 0.18 | –
Cc1ccc(NS(=O)(=O)c2cccc(NC(=O)C(=O)NCCCCCN(C)C)c2)c2[nH]cc(C#N)c12 | 0.398 µM | – | – | – | –
Cc1ccc(NS(=O)(=O)c2cccc(NC(=O)C(=O)NCCCCCCCN)c2)c2[nH]cc(C#N)c12 | 0.927 µM | – | – | – | –
Cc1ccc(NS(=O)(=O)c2cccc(NC(=O)C(=O)NCCN)c2)c2[nH]cc(C#N)c12 | 2.9 µM | – | – | – | –
Cc1ccc(NS(=O)(=O)c2cccc(NC(=O)C(=O)N3CCC[C@H]3CO)c2)c2[nH]cc(C#N)c12 | 0.0503 µM | 0.49 | Active | 0.32 | –
Cc1ccc(NS(=O)(=O)c2cccc(NC(=O)C(=O)N3CCC[C@@H]3CN)c2)c2[nH]cc(C#N)c12 | 0.0523 µM | 0.52 | Active | 0.22 | –
Cc1ccc(NS(=O)(=O)c2cccc(NC(=O)C(=O)N3CCCC[C@H]3CO)c2)c2[nH]cc(C#N)c12 | 0.0703 µM | 0.59 | Active | 0.21 | –
Cc1ccc(NS(=O)(=O)c2cccc(NC(=O)C(=O)N3CCC[C@@H]3CNCCCCCCNC(=S)Nc3ccc4c(c3)C(=O)OC43c4ccc(O)cc4Oc4cc(O)ccc43)c2)c2[nH]cc(C#N)c12 | – | – | – | – | IC50 [5]: > 2 µM; IC50 [6]: 0.208 µM
COC[C@@H]1CCCN1C(=O)C(=O)Nc1cccc(S(=O)(=O)Nc2ccc(C)c3c(C#N)c[nH]c23)c1 | 0.696 µM | – | – | – | –
Cc1ccc(NS(=O)(=O)c2cccc(NC(=O)C(=O)NCCCCCN)c2)c2[nH]cc(C#N)c12 | 0.0678 µM | 0.8 | Active | 0.3 | IC50 [7]: 0.301 µM
Cc1ccc(NS(=O)(=O)c2cccc(NC(=O)C(=O)NCCCCCCN)c2)c2[nH]cc(C#N)c12 | 0.149 µM | – | – | – | –
Cc1ccc(NS(=O)(=O)c2cccc(NC(=O)C(=O)NCCCN)c2)c2[nH]cc(C#N)c12 | 1.5 µM | – | – | – | –
Cc1ccc(NS(=O)(=O)c2cccc(NC(=O)C(=O)NCCCCN)c2)c2[nH]cc(C#N)c12 | 1 µM | – | – | – | –
